Laboratory results: patent US12077503B2, “Substituted cyclic amides and their use as herbicides” (FMC CORPORATION, priority 2015, dated 2024)

Experiments:
Type in all cases: in vivo
[1] = system: Galium (catchweed bedstraw, Galium aparine); test: Test A postemergence; settings: Postemergence
From the text: (§1) Seeds of plant species selected from barnyardgrass (Echinochloa crus-galli), Kochia (Kochia scoparia), ragweed (common ragweed, Ambrosia elatior), ryegrass, Italian (Italian ryegrass, Lolium multiflorum), crabgrass, large (Digitaria sanguinalis), giant foxtail (Setaria faberii), green foxtail (Setaria viridis), morningglory (Ipomoea spp.), pigweed (Amaranthus retroflexus), velvetleaf (Abutilon theophrasti), wheat (Triticum aestivum), and corn (Zea mays) were planted into a blend of loam soil and sand and treated preemergence with a directed soil spray using test chemicals formulated in anon-phytotoxic solvent mixture which included a surfactant.
(§2) At the same time, plants selected from these crop and weed species and also blackgrass (Alopecurus myosuroides), and Galium (catchweed bedstraw, Galium aparine) were planted in pots containing the same blend of loam soil and sand and treated with postemergence applications of test chemicals formulated in the same manner. Plants ranged in height from 2 to 10 cm and were in the one- to two-leaf stage for the postemergence treatment. Treated plants and untreated controls were maintained in a greenhouse for approximately 10 d, after which time all treated plants were compared to untreated controls and visually evaluated for injury. Plant response ratings, summarized in Table A, are based on a 0 to 100 scale where 0 is no effect and 100 is complete control. A dash (-) response means no test result.

[2] = system: pigweed (Amaranthus retroflexus); test: Test A postemergence; settings: Postemergence
From the text: as §1, §2

Kochia (Kochia scoparia) [3] = test: Test A postemergence; settings: Postemergence
From the text: as §1, §2

[4] = system: wheat (Triticum aestivum); test: Test A postemergence; settings: Postemergence
From the text: as §1, §2

[5] = system: blackgrass (Alopecurus myosuroides); test: Test A postemergence; settings: Postemergence
From the text: as §1, §2

corn (Zea mays) = test: Test A postemergence; settings: Postemergence
From the text: as §1, §2

[6] = system: giant foxtail (Setaria faberii); test: Test A postemergence; settings: Postemergence
From the text: as §1, §2

[7] = system: ragweed (common ragweed, Ambrosia elatior); test: Test A postemergence; settings: Postemergence
From the text: as §1, §2

[8] = system: ryegrass, Italian (Italian ryegrass, Lolium multiflorum); test: Test A postemergence; settings: Postemergence
From the text: as §1, §2

[9] = system: pigweed (Amaranthus retroflexus); test: Test A preemergence; settings: for Pigweed plant response rating: 0 to 100 scale where 0 is no effect and 100 is complete control; for Plant response rating, Pigweed: 125 g ai/ha, 0 to 100 scale (0 no effect, 100 complete control)
From the text: as §1, §2

Kochia (Kochia scoparia) [10] = test: Test A preemergence; settings: for Kochia plant response rating: 0 to 100 scale where 0 is no effect and 100 is complete control; for Plant response rating, Kochia: 125 g ai/ha, 0 to 100 scale (0 no effect, 100 complete control)
From the text: as §1, §2

[11] = system: giant foxtail (Setaria faberii); test: Test A preemergence; settings: for Foxtail, Giant plant response rating: 0 to 100 scale where 0 is no effect and 100 is complete control; for Plant response rating, Foxtail, Giant: 125 g ai/ha, 0 to 100 scale (0 no effect, 100 complete control)
From the text: as §1, §2

[12] = system: barnyardgrass (Echinochloa crus-galli); test: Test A preemergence; settings: for Barnyardgrass plant response rating: 0 to 100 scale where 0 is no effect and 100 is complete control; for Plant response rating, Barnyardgrass: 125 g ai/ha, 0 to 100 scale (0 no effect, 100 complete control)
From the text: as §1, §2

[13] = system: ragweed (common ragweed, Ambrosia elatior); test: Test A preemergence; settings: for Ragweed plant response rating: 0 to 100 scale where 0 is no effect and 100 is complete control; for Plant response rating, Ragweed: 125 g ai/ha, 0 to 100 scale (0 no effect, 100 complete control)
From the text: as §1, §2

[14] = system: ryegrass, Italian (Italian ryegrass, Lolium multiflorum); test: Test A preemergence; settings: Preemergence; for Plant response rating, Ryegrass, Italian: 125 g ai/ha, 0 to 100 scale (0 no effect, 100 complete control)
From the text: as §1, §2

[15] = system: ducksalad (Heteranthera limosa); test: Test B flooded paddy test; settings: 250 g ai/ha, Flood
Experimental: (§3) Plant species in the flooded paddy test selected from rice (Oryra sativa), sedge, umbrella (small-flower umbrella sedge, Cyperus difformis), ducksalad (Heteranthera limosa), and barnyardgrass (Echinochloa crus-galli) were grown to the 2-leaf stage for testing. At time of treatment, test pots were flooded to 3 cm above the soil surface, treated by application of test compounds directly to the paddy water, and then maintained at that water depth for the duration of the test. Treated plants and controls were maintained in a greenhouse for 13 to 15 d, after which time all species were compared to controls and visually evaluated. Plant response ratings, summarized in Table B, are based on a scale of 0 to 100 where 0 is no effect and 100 is complete control. A dash (-) response means no test result.

[16] = system: sedge, umbrella (small-flower umbrella sedge, Cyperus difformis); test: Test B flooded paddy test; settings: Flood, 250 g ai/ha; visually evaluated after 13 to 15 d
Experimental: as §3

[17] = system: barnyardgrass (Echinochloa crus-galli); test: Test B flooded paddy test; settings: 250 g ai/ha, Flood
Experimental: as §3

rice (Oryra sativa) = test: Test B flooded paddy test; settings: 250 g ai/ha, Flood
Experimental: as §3

[18] = system: barnyardgrass (Echinochloa crus-galli); test: Test A postemergence; settings: Postemergence
From the text: as §1, §2

[19] = 125 g ai/ha, visual rating about 10 d after treatment
[20] = 500 g ai/ha, visual injury, 0 to 100 scale (0 no effect, 100 complete control), approx. 10 d
[21] = 0 to 100 scale where 0 is no effect and 100 is complete control
[22] = 31 g ai/ha, 0 is no effect, 100 is complete control
[23] = visually evaluated after 13 to 15 d

For `Cc1cc([C@H]2CN(C)C(=O)[C@@H]2C(=O)Nc2ccccc2[S+](C)[O-])ccc1F` (stereo partly shown) [Compound 1314], the “Galium plant response rating (0 to 100 scale)” value [1, 19] was 30, the “Plant response rating, Galium” value [1, 20] was 50 and the “Pigweed plant response rating (0 to 100 scale)” value [2, 19] was 0. The “Plant response rating, Pigweed” value [2, 20] was 30, the “Kochia plant response rating (0 to 100 scale)” value (Kochia (Kochia scoparia) [3]; [19]) was 50 and the “Plant response rating, Kochia” value (Kochia (Kochia scoparia) [3]; [20]) was 60. For the same molecule, the “Wheat plant response rating (0 to 100 scale)” value (shortened to “Wheat plant response rating”) [4, 19] was 20, the “Plant response rating, Wheat” value [4, 20] was 60 and the “Blackgrass plant response rating (0 to 100 scale)” value (shortened to “Blackgrass plant response rating”) [5, 19] was 0. For the same molecule, the “Plant response rating, Blackgrass” value [5, 20] was 60, the “Corn plant response rating (0 to 100 scale)” value (“Corn plant response rating” below) (corn (Zea mays); [19]) was 30 and the “Plant response rating, Corn” value (corn (Zea mays); [20]) was 70. For the same molecule, the “Foxtail, Giant plant response rating (0 to 100 scale)” value (“Foxtail … (0 to 100 scale)” below) [6, 19] was 90, the “Plant response rating, Foxtail, Giant” value [6, 20] was 90 and the “Ragweed plant response rating (0 to 100 scale)” value [7, 19] was 0. The “Plant response rating, Ragweed” value [7, 20] was 50, the “Ryegrass, Italian plant response rating (0 to 100 scale)” value (“Ryegrass … (0 to 100 scale)” below) [8, 19] was 0 and the “Plant response rating, Ryegrass, Italian” value [8, 20] was 0. The “Pigweed plant response rating” value ([9]; 500 g ai/ha, preemergence) was 70, the “Plant response rating, Pigweed” value ([9]; Preemergence) was 0 and the “Kochia plant response rating” value (Kochia (Kochia scoparia) [10]; 500 g ai/ha, preemergence) was 80. For the same molecule, the “Plant response rating, Kochia” value (Kochia (Kochia scoparia) [10]; Preemergence) was 80, the “Foxtail, Giant plant response rating” value ([11]; 500 g ai/ha, preemergence) was 100 and the “Plant response rating, Foxtail, Giant” value ([11]; Preemergence) was 90. The “Barnyardgrass plant response rating” value ([12]; 500 g ai/ha, preemergence) was 100, the “Plant response rating, Barnyardgrass” value ([12]; Preemergence) was 100 and the “Ragweed plant response rating” value ([13]; 500 g ai/ha, preemergence) was 100. The “Plant response rating, Ragweed” value ([13]; Preemergence) was 80, the “Plant response rating, Ryegrass, Italian” value [14] was 20 and the “Ducksalad plant response rating” value [15, 21] was 100. For the same molecule, the “Plant response rating, Sedge, Umbrella (0 to 100 scale where 0 is no effect and 100 is complete control)” value [16] was 0, the “Barnyardgrass plant response rating” value [17, 21] was 65 and the “Rice plant response rating” value (rice (Oryra sativa); [21]) was 0.

In the case of `CN1C[C@H](c2ccc3c(c2)OC(F)(F)O3)[C@@H](C(=O)Nc2cccc([N+](=O)[O-])c2)C1=O` [Compound 1353], the “Pigweed plant response rating (0 to 100 scale)” value [2, 19] was 20, the “Pigweed plant response rating (0 to 100 scale)” value [2, 22] was 0 and the “Kochia plant response rating (0 to 100 scale)” value (Kochia (Kochia scoparia) [3]; [19]) was 20. The “Kochia plant response rating (0 to 100 scale)” value (Kochia (Kochia scoparia) [3]; [22]) was 0, the “Wheat plant response rating” value [4, 19] was 0 and the “Wheat plant response rating” value [4, 22] was 0. For the same molecule, the “Blackgrass plant response rating” value [5, 19] was 20, the “Blackgrass plant response rating” value [5, 22] was 0 and the “Corn plant response rating” value (corn (Zea mays); [19]) was 0. For the same molecule, the “Corn plant response rating” value (corn (Zea mays); [22]) was 0, the “Foxtail … (0 to 100 scale)” value [6, 19] was 70 and the “Foxtail … (0 to 100 scale)” value [6, 22] was 30. For the same molecule, the “Barnyardgrass plant response rating (0 to 100 scale, 0 no effect, 100 complete control)” value [18, 19] was 90, the “Barnyardgrass plant response rating (0 to 100 scale)” value [18, 22] was 40 and the “Ragweed plant response rating (0 to 100 scale)” value [7, 19] was 0. For the same molecule, the “Ragweed plant response rating (0 to 100 scale)” value [7, 22] was 0, the “Ryegrass … (0 to 100 scale)” value [8, 19] was 0 and the “Ryegrass … (0 to 100 scale)” value [8, 22] was 0. For the same molecule, the “Pigweed plant response rating” value ([9]; 31 g ai/ha, Preemergence) was 0, the “Plant response rating, Pigweed” value ([9]; Preemergence) was 30 and the “Kochia plant response rating” value (Kochia (Kochia scoparia) [10]; 31 g ai/ha, Preemergence) was 60. For the same molecule, the “Plant response rating, Kochia” value (Kochia (Kochia scoparia) [10]; Preemergence) was 80, the “Foxtail, Giant plant response rating” value ([11]; 31 g ai/ha, Preemergence) was 80 and the “Plant response rating, Foxtail, Giant” value ([11]; Preemergence) was 100. For the same molecule, the “Barnyardgrass plant response rating” value ([12]; 31 g ai/ha, Preemergence) was 0, the “Plant response rating, Barnyardgrass” value ([12]; Preemergence) was 70 and the “Ragweed plant response rating” value ([13]; 31 g ai/ha, Preemergence) was 40. The “Plant response rating, Ragweed” value ([13]; Preemergence) was 0, the “Ryegrass, Italian plant response rating” value ([14]; 31 g ai/ha, 0 to 100 scale where 0 is no effect and 100 is complete control) was 10 and the “Plant response rating, Ryegrass, Italian” value [14] was 20. The “Plant response rating, Ducksalad (0 to 100 scale where 0 is no effect and 100 is complete control)” value [15, 23] was 40, the “Plant response rating, Sedge, Umbrella (0 to 100 scale where 0 is no effect and 100 is complete control)” value [16] was 0 and the “Plant response rating, Barnyardgrass (0 to 100 scale where 0 is no effect and 100 is complete control)” value [17, 23] was 60. The “Plant response rating, Rice (0 to 100 scale where 0 is no effect and 100 is complete control)” value (rice (Oryra sativa); [23]) was 0.
